# Assay results from ChEMBL document CHEMBL1136792, “Synthesis of chiral 1-[omega-(4-chlorophenoxy)alkyl]-4-methylpiperidines and their biological evaluation at sigma1, sigma2, and sterol delta8-delta7 isomerase sites” (J Med Chem, 2003).
# Key:
# [1] = molecular target: T1, 3-beta-hydroxysteroid-Delta(8),Delta(7)-isomerase (Cavia porcellus, UniProt Q60490); experiment: Inhibition of [3H]-emopamil binding to Sterol delta 8-delta 7 isomerase in guinea pig liver membrane; assay type: cell membranes
# T1 sequence (Q60490 whole entry): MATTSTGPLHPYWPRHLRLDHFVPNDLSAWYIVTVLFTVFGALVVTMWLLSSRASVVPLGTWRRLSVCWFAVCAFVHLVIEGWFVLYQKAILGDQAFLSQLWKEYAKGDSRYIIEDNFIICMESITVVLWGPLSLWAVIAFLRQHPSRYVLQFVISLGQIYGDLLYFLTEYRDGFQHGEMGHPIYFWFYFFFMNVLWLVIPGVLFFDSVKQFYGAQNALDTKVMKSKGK
# [2] = molecular target: Sigma 2 receptor; experiment: Inhibition of [3H]DTG binding to Sigma receptor type 2 in rat liver membrane; assay type: cell membranes
# [3] = molecular target: Sigma non-opioid intracellular receptor 1 (Homo sapiens) (UniProt Q99720); experiment: Relative affinity for sigma-2 over sigma-1 receptors
# Chain of Sigma non-opioid intracellular receptor 1 (Homo sapiens) (Q99720 whole entry): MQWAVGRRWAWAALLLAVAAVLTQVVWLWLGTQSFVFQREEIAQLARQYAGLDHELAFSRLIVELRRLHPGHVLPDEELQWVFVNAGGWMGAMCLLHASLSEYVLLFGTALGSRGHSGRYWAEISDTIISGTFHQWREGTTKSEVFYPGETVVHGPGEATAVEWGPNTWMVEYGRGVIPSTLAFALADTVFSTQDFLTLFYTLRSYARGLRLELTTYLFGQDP
# [4] = organism: Cavia porcellus; experiment: Relative affinity for sterol delta-(8)-delta-(7) isomerase over sigma-1 receptor
Compound,Ki [1] [nM],Ki [2] [nM],Ratio [3],Ratio [4]
CC1CCN(CCOc2ccc(Cl)cc2)CC1,3.7,239,,
CC1CCN(CC[C@H](C)Oc2ccc(Cl)cc2)CC1,12,65.9,,
CC1CCN([C@@H](C)CCOc2ccc(Cl)cc2)CC1,37,31.6,,
CC1CCN([C@@H](C)COc2ccc(Cl)cc2)CC1,3.73,186,547,11
CC(C(O)c1ccc(O)cc1)N1CCC(Cc2ccccc2)CC1 (racemic) [IFENPRODIL],2.71,,,
CC1CCN(C[C@@H](C)Oc2ccc(Cl)cc2)CC1,3.38,318,,
C(/C=C/c1ccc2c(c1)OCO2)=C\CN1CCCCC1,,554,,
CC1CCN(C[C@H](C)Oc2ccc(Cl)cc2)CC1,35.1,332,,
CC1CCN(C[C@@H](C)COc2ccc(Cl)cc2)CC1,18.7,62,36,11
CC1CCN(CC[C@@H](C)Oc2ccc(Cl)cc2)CC1,30.1,13.9,,
CC1CCN(C[C@H](C)COc2ccc(Cl)cc2)CC1,14.5,40.8,37,13
CC1CCN([C@H](C)COc2ccc(Cl)cc2)CC1,27.5,52.3,44,23
CC1CCN([C@H](C)CCOc2ccc(Cl)cc2)CC1,7.79,15.1,,
CC1CCN(CCCOc2ccc(Cl)cc2)CC1,9.65,38.6,,
